Measured values from patent US11529353B2, “Pharmaceutical composition comprising Palbociclib” (Synthon B.V., priority 2017, dated 2022).

Experiments:
[1] = Specific surface area by BET-nitrogen adsorption analysis; assay type: physicochemical
Description: The specific surface area (SSA) is assessed with a Quantachrome NOVA touch 2LX. The N2 is used as measuring gas and BET method is used to evaluate SSA. The following setup has been used for the measurement: • Adsorbate: Nitrogen • Sample cell: 9 mm large bulb cell, long; Measurement is performed with the corresponding filler rod • Sample masses*: approximately ¾ of cell bulb • Degassing conditions: 960 min at 30° C. under vacuum (ramping 10° C./min) • Measured points of isotherm: 11 equidistant points in the range 0.05-0.30 p/p0** • Points analyzed using BET: 7equidistant points from whole range 0.05-0.20 p/p0 • Use data reduction adsorbate model: Yes (N2) • Bath thermal delay: at least 600 s • P0 Option: continuous (measured each 30 minutes) • Void volume mode: Helium measure • Equilibration time: 160 s • Equilibration timeout: 2400 s • Tolerance: 0.05 • * Used amount of sample depends on its SSA and other physical parameters. The real surface area of sample in measuring cell should be between 1 m^2/g and 20 m^2/g. • ** Points above or below this range can be measured.

[2] = cited from earlier work
[3] = Particle size distribution by LASER diffraction (Malvern Mastersizer 2000); assay type: physicochemical
Description: The particle size distribution (PSD) is determined with LASER diffraction analyzer Malvern Mastersizer 2000 which operates in size ranges from 0.02 μm to 2,000 μm. The wet dispersion is prepared from dry powder sample and added to the dispersion unit. Gained raw data are computed by software to PSD with the use of Mie theory. This method is based on Ph. Eur. Method 2.9.31 and USP <429>.

CC(=O)c1c(C)c2cnc(Nc3ccc(N4CCNCC4)cn3)nc2n(C2CCCC2)c1=O [Palbociclib]
surface area [1]: 6.9 m^2/g
solubility ([2]; above pH 4): reduces significantly
solubility in water ([2]; at or below pH 4): high-solubility compound
D90 [3]: 11.5 μm
